Data on two compounds can be found in patent US12485124B2, “Methods for treating alzheimer disease and for reducing amyloid beta formation” (ARIBIO CO., LTD., priority 2019, dated 2025).

The test system of assay [1] is BACE-1 and Cathepsin B. To be noted: reported in J Gerontol a Biol Sci Med Sci 2015; J Urol. 2016; cited from earlier work.
Assay [2] has as its system LC3B, p62, APP, Aβ1-42 in Retinoic Acid Differentiated SH-SY5Y Human Neuroblastoma Cell. The experiment in a line: Western Blot of Autophagy Markers LC3B and p62. The assay is classed as cell-based. The note with it: 3-MA 5 mM together with the present invention; Aβ1-42 Oligomer 1 μM. How it is done:
To extract the proteins, the cells were treated with RIPA Lysis Buffer (Bio-Rad), homogenized, and centrifuged (14,000 rpm, 10 minutes, 4° C.) to obtain the supernatant. 5% Stacking Gel (DW, 30% Acrylamide: Bisacrylamide, 1M Tris pH 6.8, 10% SDS, TEMED, 10% Ammonium Persulfate) and 12% Separating Gel (DW, 30% Acrylamide: Bisacrylamide, 1.5M Tris pH 8.8, 10% SDS, TEMED, 10% Ammonium Persulfate) were used for SDS-PAGE. Supernatant obtained by centrifugation was mixed with 4× Lacmmli Buffer (Bio-Rad) in 3:1 ratio and boiled at 95° C. for 10 minutes to denature the proteins. The mixture was cooled in an ice bath for 10 minutes and span down. Protein Size Marker (Bio-Rad) and each sample were added to Stacking Gel Well prepared in Mini-Protein II Dual-Slab Apparatus (Bio-Rad) and electrophoresed at 150 volt till all are precipitated to the bottom. Polyvinylidene Difluoride (PVDF) Membrane was moistened with methanol to activate and washed with Transfer Buffer (190 mM Glycine, 50 mM Tris-Base, 0.05% SDS, 20% Methanol). Whatman 3M Paper moistened with Transfer Buffer was stacked in Mini Trans-Bolt Cell (Bio-Rad) and run electricity at 200 mA for 60 minutes to deposit the membrane. After the deposition, the membrane was blocked with 5% Skim milk solution (in TBS-T: 10 mM Tris-Base pH 8.0, 150 mM NaCl, 0.1% Tween-20) on a Platform Shaker for 60 minutes. The primary antibodies were diluted in 5% Skim Milk in an optimum concentration for each, put on platform shaker at 4° C. for 16 hours. […] Finally, Membrane was added to SuperSignal™ West Femto Maximum Sensitivity Substrate (Thermo Scientific™) and expressed the color properly before the membrane was scanned using image analysis system and the amount of protein was calculated using Image J Software (NIH, USA). […]
Background: Immunoblotting shows a protein as a band on a membrane.

With `CCCc1nn(C)c2c(=O)[nH]c(-c3cc(S(=O)(=O)N4CCN(C)CC4)ccc3OCC)nc12` [Sildenafil], the “BACE-1 and Cathepsin B expression” value in assay [1] was “suppressed BACE-1 and Cathepsin B expression”.

Turning to `Cn1cnc(N)c2ncnc1-2` [3-MA, 3-Methyladenine], in assay [2], the “APP formation and Aβ1-42 accumulation” value was “APP formation and Aβ1-42 accumulation increased”; the “Autophagic Flux (LC3B-II/I Ratio)” value is “Autophagic Flux (LC3B-II/I Ratio) increased by the present invention was reduced”; the “expression of p62” value is “expression of p62 reduced by the present invention increased”.
